{"source": "patent US11091786B2", "about": "“Butelase-mediated peptide ligation” (Nanyang Technological University, priority 2015, dated 2021)", "assay_type_in_all_cases": "cell-based", "key": {"P. aeruginosa DM 14158": {"system": "P. aeruginosa DM 14158", "conditions": "DM 14158, 18 h", "description": "(§1) The following protocol was applied to the radial diffusion assay.\n(§2) 1. A single colony was picked and transferred into a 5 ml tube containing 2.5 ml TSB. The culture was shaken at 37° C. for 18 h.\n(§3) 2. 50 μl of the stationary phase culture was diluted to 2.5 mL of autoclaved TSB (1:50 dilution) and shaken at 37° C. for another 3 h.\n(§4) 3. This subculture was centrifuged at 5000 rpm for 5 min and the supernatant was discarded. The residual cells were washed with cold sterile 10 mM phosphate buffer, pH 7.4 and the buffer was discarded after centrifuge. 5 ml of the same buffer was added to resuspend the cells and its bacteria concentration was determined by measuring its optical density at 620 nm.\n(§5) 4. 10 ml of antoclaved, molten underlay gel agar was transferred to a 15-ml eppendorf tube and mixed with 4×10^6 CFU of bacteria by vortexing. The mixture was then poured into a petri dish and gelled in less than […]. Wells were punched against the gel using a Pasteur pippette.\n(§6) 5. Peptides to be tested were serially diluted and 3.5 μl of each sample was added to the well. The plates were incubated at 37° C. for 3 h with gel-side up.\n(§7) 6. Next, each underlay gel was covered with 10 ml of overlay gel. After the gel solidified, the plates were turned gel-side up and incubated at 37° C. for overnight.\n(§8) 7. The following morning, all the plates were taken out and the zone diameters were measured with ruler. All the samples were tested in duplicates and the results were averaged. The final minimum inhibition concentration (MIC) was determined using excel.\n(§9) There is a growing interest to develop peptide-based antibiotics (Annu Rev Immunol. 1995, 13, 61-92; J Intern Med. 2003, 254, 197-215; Cent Eur J Biol 2007, 2, 1-33; Int J Pept Res Ther. 2010, 16, 199-213) because, compared with conventional antibiotics, they are less likely to develop drug resistance and have fewer side effects (J Med Chem. 2015, 58, 6533-6548; Biochemistry-Us. 2000, 39, 7159-7169; Eur J Biochem. 2000, 267, 3289-3300; Nucleic Acids Res. 2012, 40, W199-204). To apply the presently disclosed enzymatic method in preparing dendrimeric antimicrobials, inventors synthesized two antimicrobials 12 (bivalent) and 13 (tetravalent) (MS shown in supporting information) which harbored a tetrapeptide RLYR (SEQ ID NO:121) as the antibacterial sequence (Eur J Biochem. 2002, 269, 923-932) by ligating N-acetylated thiodepsipeptide 10 Ac-RLYRN-thioglc-V (SEQ ID NO:120) with dendron core 2 and 6 respectively. The RLYR (SEQ ID NO:121) tetrapeptide contains a BHHB motif (B=basic, H=hydrophobic) which is commonly found in certain potent and broad-spectrum β-stranded antimicrobial peptides (BioDrugs. 2013, 27, 479-493) such as PG (protegrins) (Febs Lett. 1993, 327, 231-236) and RTD-1 (rhesus monkey theta defensin) (Science. 1999, 286, 498-502). This consensus motif with positive charged and hydrophobic residues was successfully used as a dendrimeric antimicrobial in 2002 (Eur J Biochem. 2002, 269, 923-932). Such short peptide-based dendrimeric antimicrobials are broad-spectrum antibiotics and kill bacterial cells through electrostatic and hydrophobic interactions with the negatively charged microbial cytoplasmic membranes (Biochemistry-Us. 2009, 48, 5642-5657). Using a radial diffusion assay, inventors tested the antimicrobial activities against E. coli and S. aureus of these two dendrimeric peptides together with prototypical monomer 11 RLYR (SEQ ID NO:121), mono-, tri-lysine dendron core 2 and 6 for comparison. All assays were performed under a high-salt condition (100 mM NaCl) to simulate physiological conditions. […] The tetravalent dendrimeric structure 13 had further improved antimicrobial activities with MICs<3 μM against both strains. When testing 13 against several drug-resistant strains under high-salt condition, the tetramer construct was broadly active against all six tested strains with MICs ranging from 0.87 to 4.8 μM. […]"}, "K. species DR 13779": {"system": "K. species DR 13779", "conditions": "18 h", "description": "as §1, §2, §3, §4, §5, §6, §7, §8, §9"}, "S. aureus DB 14329": {"system": "S. aureus DB 14329", "conditions": "DB 14329, 18 h", "description": "as §1, §2, §3, §4, §5, §6, §7, §8, §9"}, "drug-resistant strains": {"system": "drug-resistant strains", "description": "as §1, §2, §3, §4, §5, §6, §7, §8, §9"}, "E. cloacae DM 09800": {"system": "E. cloacae DM 09800", "conditions": "DM 09800, 18 h", "description": "as §1, §2, §3, §4, §5, §6, §7, §8, §9"}, "E. coli DU 09777": {"system": "E. coli DU 09777", "conditions": "DU 09777, 18 h", "description": "as §1, §2, §3, §4, §5, §6, §7, §8, §9"}, "E. coli DM 04604": {"system": "E. coli DM 04604", "conditions": "DM 04604, 18 h", "description": "as §1, §2, §3, §4, §5, §6, §7, §8, §9"}}, "note": "Bridge positions count the residues as written; N and C are the ends. Square brackets hold non-standard residues; d marks the D form. Peptide text beside a SMILES is read from it. I, II: the chains in the order shown. βAla = NCCC(=O)O", "data": [{"smiles": "CC[C@H](C)[C@H](NC(=O)[C@H](CCCNC(=N)N)NC(=O)[C@H](CC(N)=O)NC(=O)[C@H](CCCNC(=N)N)NC(=O)[C@H](Cc1ccc(O)cc1)NC(=O)[C@H](CC(C)C)NC(=O)[C@H](CCCNC(=N)N)NC(C)=O)C(=O)NCCC(=O)NCCCC[C@H](NC(=O)CCNC(=O)[C@@H](NC(=O)[C@H](CCCNC(=N)N)NC(=O)[C@H](CC(N)=O)NC(=O)[C@H](CCCNC(=N)N)NC(=O)[C@H](Cc1ccc(O)cc1)NC(=O)[C@H](CC(C)C)NC(=O)[C@H](CCCNC(=N)N)NC(C)=O)[C@@H](C)CC)C(=O)NCCCC[C@H](NC(=O)[C@H](CCCCNC(=O)CCNC(=O)[C@@H](NC(=O)[C@H](CCCNC(=N)N)NC(=O)[C@H](CC(N)=O)NC(=O)[C@H](CCCNC(=N)N)NC(=O)[C@H](Cc1ccc(O)cc1)NC(=O)[C@H](CC(C)C)NC(=O)[C@H](CCCNC(=N)N)NC(C)=O)[C@@H](C)CC)NC(=O)CCNC(=O)[C@@H](NC(=O)[C@H](CCCNC(=N)N)NC(=O)[C@H](CC(N)=O)NC(=O)[C@H](CCCNC(=N)N)NC(=O)[C@H](Cc1ccc(O)cc1)NC(=O)[C@H](CC(C)C)NC(=O)[C@H](CCCNC(=N)N)NC(C)=O)[C@@H](C)CC)C(=O)N[C@@H](Cc1ccc(O)cc1)C(N)=O", "note": "[Tetramer 13, (Ac-RLYRNRIβA)4K2KY] (I: Ac-RLYRNRI[βAla]KKY-NH2 / II: Ac-RLYRNRI[βAla]K / III: Ac-RLYRNRI[βAla] / IV: Ac-RLYRNRI[βAla]; amide I:9-IV:C, I:10-II:C, II:9-III:C)", "values": [{"measurement": "MIC", "setting": "P. aeruginosa DM 14158", "result": 2.3, "unit": "µM"}, {"measurement": "MIC", "setting": "K. species DR 13779", "result": 1.5, "unit": "µM"}, {"measurement": "MIC", "setting": "S. aureus DB 14329", "result": 4.8, "unit": "µM"}, {"measurement": "MICs, broad-spectrum", "setting": "drug-resistant strains; all strains tested, including several drug-resistant bacterial strains", "result": "< 5", "unit": "µM"}, {"measurement": "MICs against all six tested drug-resistant strains", "setting": "drug-resistant strains; six drug-resistant strains, high-salt condition", "result": "0.87 to 4.8", "unit": "µM"}, {"measurement": "MIC", "setting": "E. cloacae DM 09800", "result": 0.9, "unit": "µM"}, {"measurement": "MIC", "setting": "E. coli DU 09777", "result": 2.2, "unit": "µM"}, {"measurement": "MIC", "setting": "E. coli DM 04604", "result": 4.5, "unit": "µM"}]}]}
